Laboratory results reported in patent publication US20200316056A1, “Pain Medicine Combination and Uses Thereof” (Mindlab, LLC, priority 2013, published 2020).
Where “and” joins values, the source holds several entries; their conditions need not be identical. Equal values may be shown once.

Test system: rats
Experiment: Ugo Basile Tail Flick method (Example 2)
Format: in vivo
Conditions: for Tail Flick Time (seconds) after administration: individual rats 1-7; for Tail Flick Time (seconds) after administration, Mean: mean of 7 rats; for Tail Flick Time (seconds) after administration, Median: median of 7 rats
Method: The addition of quinidine to a pharmaceutical composition of morphine, and dextromethorphan was tested using Ugo Basile Tail Flick method. This method is often used for in vivo screening of multiple drugs with analgesic activity. The animal was placed and held on the Ugo Basile Tail Flick instrument surface with the tail straight back and across an infrared light source. The heat source and timer are turned on by a foot pedal press, and automatically switch off when the animal flicks its tail off the emitter. Latency time is measured and analyzed as an analgesic effect. Each preparation was tested in 7 rats.

Row | SMILES | Tail Flick Time (seconds) after administration (1 h after administration) | Tail Flick Time (seconds) after administration, Mean (1 h after administration) | Tail Flick Time (seconds) after administration, Median (1 h after administration) | Tail Flick Time (seconds) after administration (3 h after administration) | Tail Flick Time (seconds) after administration, Mean (3 h after administration) | Tail Flick Time (seconds) after administration, Median (3 h after administration) | Tail Flick Time (seconds) after administration (5 h after administration) | Tail Flick Time (seconds) after administration, Mean (5 h after administration) | Tail Flick Time (seconds) after administration, Median (5 h after administration) | Tail Flick Time (seconds) after administration (8 h after administration) | Tail Flick Time (seconds) after administration, Mean (8 h after administration) | Tail Flick Time (seconds) after administration, Median (8 h after administration) | Tail Flick Time (seconds) after administration (10 h after administration) | Tail Flick Time (seconds) after administration, Mean (10 h after administration) | Tail Flick Time (seconds) after administration, Median (10 h after administration) | Tail Flick Time (seconds) after administration (14 h after administration) | Tail Flick Time (seconds) after administration, Mean (14 h after administration) | Tail Flick Time (seconds) after administration, Median (14 h after administration) | Tail Flick Time (seconds) after administration (24 h after administration) | Tail Flick Time (seconds) after administration, Mean (24 h after administration) | other results
1 | COc1ccc2c(c1)[C@]13CCCC[C@@H]1[C@H](C2)N(C)CC3 [Dextromethorphan] | 4.10 s and 3.90 s and 3.30 s and 4.80 s and 5.60 s and 3.70 s and 7.30 s | 4.67 s | 4.10 s | 3.90 seconds and 4.60 seconds (2×) and 4.50 seconds and 5.40 seconds and 3.30 seconds and 8.70 seconds | 5.00 s | 4.60 s | 4.60 seconds and 6.40 seconds (2×) and 2.90 seconds and 5.10 seconds and 4.10 seconds and 4.50 seconds | 4.86 s | 4.60 s | 5.40 s and 5.10 s and 3.70 s and 7.30 s and 4.30 s and 3.80 s and 3.60 s | 4.74 s | 4.30 s | 3.10 seconds and 5.50 seconds and 4.30 seconds and 4.80 seconds (2×) and 3.90 seconds and 6.60 seconds | 4.71 s | 4.80 s | 3.90 seconds (2×) and 5.20 seconds and 5.60 seconds and 3.80 seconds and 5.10 seconds and 4.10 seconds | 4.51 s | 4.10 s | 3.50 seconds (2×) and 4.70 seconds and 4.30 seconds and 5.20 seconds and 3.70 seconds and 3.10 seconds | 4.00 s | Tail Flick Time (seconds) after administration, Median (24 h after administration): 3.70 s
2 | CN1CC[C@]23c4c5ccc(O)c4O[C@H]2[C@@H](O)C=C[C@H]3[C@H]1C5 [Morphine] | 5.80 s and 5.10 s and 6.50 s and 30.10 s and 6.80 s and 10.50 s and 3.70 s | 9.79 s | 6.50 s | 6.30 s and 7.60 s and 2.70 s and 9.50 s and 5.30 s and 5.90 s and 4.80 s | 6.01 s | 5.90 s | 4.80 seconds and 6.60 seconds and 5.90 seconds and 10.90 seconds and 4.90 seconds and 4.60 seconds (2×) | 6.04 s | 4.90 s | 6.90 s and 10.50 s and 8.30 s and 8.50 s and 6.70 s and 6.30 s and 3.50 s | 7.24 s | 6.90 s | 4.70 s and 4.10 s and 4.80 s and 6.50 s and 6.20 s and 4.20 s and 2.90 s | 4.77 s | 4.70 s | 3.50 seconds and 7.50 seconds and 5.10 seconds (2×) and 7.80 seconds and 2.90 seconds and 4.10 seconds | 5.14 s | 5.10 s | 4.80 seconds (2×) and 7.60 seconds and 4.30 seconds and 3.40 seconds and 4.90 seconds and 6.10 seconds | 5.13 s | Tail Flick Time (seconds) after administration, Median (1 h after administration, listed as morphine): 6.5 s; Tail Flick Time (seconds) after administration, Median (24 h after administration): 4.80 s
